In series [1] the test system is SCID-Ins-TRECK-Tg mice. Kind of series: Decrease in blood glucose level by administration of insulin to DT-induced hyperglycemic mice. The format is in vivo, mouse.
Series [2] deals with human HB-EGF (L148S/P149T) (human) (UniProt Q99075). The experiment in a line: cell-based or functional assay.
The test system of series [3] is mouse. Conditions: dosage of 50 μg/kg.
The subject of series [4] is SCID-Ins-TRECK-Tg mouse. The experiment in a line: Blood insulin level after DT in transgenic mouse. The class given is in vivo. An excerpt:
(§1) Moreover, the blood insulin level of an SCID-Ins-TRECK-Tg mouse was compared with that of a non-Tg mouse. When DT had not yet been administered, there had been no difference between them. […] However, the SCID-Ins-TRECK-Tg mouse was not able to secrete insulin, and thus the blood insulin level thereof was not changed (FIG. 5B) in it.

Series [5] has as its system SCID-Ins-TRECK-Tg mice. Kind of series: Blood glucose level after intraperitoneal diphtheria toxin in transgenic mice. The class given is in vivo, mouse.
The test system of series [6] is non-Tg mouse. Kind of series: Blood insulin level after DT in non-Tg mouse. The class given is in vivo.
Description: as §1

In series [7] the test system is non-transgenic mouse born of the same mother. Kind of series: Blood glucose level after diphtheria toxin in non-transgenic littermate. The class given is in vivo.
Series [8] concerns mouse cells. Conditions: toxin added from outside of the cells; cited from earlier work.
Series [9] has as its system islets of Langerhans in the pancreas of the transgenic mouse. Kind of series: Histological analysis of transgenic mouse pancreas after diphtheria toxin. The class given is in vivo.
Setting [10] is: 5th day after administration of DT.
[11] abbreviates: after DT, 10 minutes after 2 g/kg oral glucose.
Setting [12] is: diphtheria toxin 50 ng/kg to 50 μg/kg intraperitoneal, within two days.
The mark [13] stands for this setting: 7 days after 5 μg/kg diphtheria toxin, immunostaining.

Sequence of UniProt Q99075 (Q99075 63-148 L148S): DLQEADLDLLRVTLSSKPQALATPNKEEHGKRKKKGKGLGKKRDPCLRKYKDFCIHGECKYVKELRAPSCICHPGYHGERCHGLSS

For the substance “NovoRapid injection: rapid-acting insulin analogue (NovoRapid injection; NovoNordisk Pharma)”, the “blood glucose level after insulin” value is listed as “decreased to a normal level” in series [1] (1 U intraperitoneal, severe hyperglycemia (blood glucose >600 mg/dl)); “rapidly decreased to a normal value” in [1] (100 mU insulin, mouse at 500 mg/dl or higher after 1 μg/kg DT (FIG. 5A)); “normalized” in series [1] (100 mU intraperitoneal, 7 days after 1 μg/kg DT, mouse with blood glucose 500 mg/dl (FIG. 5C)); “no changes” in [1] (100 mU intraperitoneal, severe hyperglycemia (blood glucose >600 mg/dl)).
“diphtheria toxin (from UniProt P00588 33-567)” gave a minimum DT amount necessary for inducing hyperglycemia in [2] of 50 ng/kg.
Take diphtheria toxin: in series [3], the abnormality after administration result is given as “no abnormality is observed”. In addition, in series [4] (setting [10]), the blood insulin level result was “significantly decreased”. In series [4] (setting [11]), the “blood insulin level after glucose load” value is “not changed”. In addition, the “time for which high blood glucose level was maintained” value in [5] (diphtheria toxin 50 ng/kg to 20 μg/kg intraperitoneal) is reported as at least 50 days. Further, the “blood glucose level from four days after administration” value in series [5] (diphtheria toxin 50 ng/kg to 20 μg/kg intraperitoneal, from four days after administration) was at least 400 mg/dL. The “blood glucose level two days after administration” value in series [5] (diphtheria toxin 50 ng/kg to 20 μg/kg intraperitoneal, two days after administration) is at least 200 mg/dL. Besides, in series [5] (setting [12]), the “blood glucose level within two days after administration” value is at least 200 mg/dL; the “glucose and ketone bodies in urine” value is “detection of glucose and ketone bodies in urine”. In addition, in series [5] (single DT administration, 5 ng/kg to 50 μg/kg intraperitoneal), the “duration of hyperglycemic state” value is given as at least 2 months. For the same substance, in series [5] (single intraperitoneal administration), the “minimum DT amount necessary for inducing hyperglycemia” value stood at 50 ng/kg. For the same substance, in series [6] (setting [10]), the blood insulin level result is “not changed”. Besides, in [6] (setting [11]), the “blood insulin level after glucose load” value is “rapidly increased”. In addition, the “changes in blood glucose levels due to administration of the toxin” value in series [7] was “no changes”. For the same substance, the “resistance of mouse cells to diphtheria toxin relative to human cells” value in series [8] is recorded as ≥ 1,000 times. Further, in series [9] (setting [13]), the “insulin positive cells (β cells) in islets of Langerhans” value is listed as “significantly decreased” and the “number of α cells stained with anti-glucagon antibodies” value is given as “increased”. In addition, in series [9] (7 days after 40 μg/kg diphtheria toxin), the “cells in the islets of Langerhans (HE staining)” value is reported as “damaged”.

These data come from patent publication US20090217394A1 (priority 2005, published 2009).
